In ChEMBL document CHEMBL1158079, “Antimalarial 4-phenylcoumarins from the stem bark of Hintonia latiflora” (J Nat Prod, 2006):
Values after ≈ are worked out from the molar mass of the structure shown.

Legend:
[1] = Toxicity against human SQC1 UISO cells; assay type: cell-based; conditions: read-out: ED50 (the source's name)
[2] = Toxicity against mouse P388 cells; assay type: cell-based; conditions: read-out: ED50 (the source's name)
[3] = Toxicity against human KB cells; assay type: cell-based; conditions: read-out: ED50 (the source's name)
Plasmodium berghei [4] = experiment: Antimalarial activity reduced schizont maturation in Plasmodium berghei at 10 ug/mL after 16 hrs; assay type: functional; set-up: scale not given: the % may be the effect or the level left
Mus musculus = experiment: Toxicity in Plasmodium berghei ANKA infected mice (Mus musculus) at 40 mg/kg/day, perorally after 4 days; assay type: organism-based; set-up: route oral; conditions: in vivo, po, 96 h
Plasmodium berghei [5] = experiment: Antimalarial activity as reduced schizont maturation in Plasmodium berghei ANKA infected mice (Mus musculus) at 5 mg/kg/day peroral dose over 4 days; assay type: functional; set-up: scale not given: the % may be the effect or the level left; conditions: route oral
Plasmodium berghei [6] = experiment: Antimalarial activity in schizont maturation against Plasmodium berghei ANKA infected mice (Mus musculus) at 200 mg/kg/day peroral dose over 4 days; assay type: functional; conditions: route oral
Plasmodium berghei [7] = experiment: Antimalarial activity as reduced schizont maturation in Plasmodium berghei after 16 hrs; assay type: functional; set-up: scale not given: the % may be the effect or the level left
Plasmodium berghei [8] = experiment: Antimalarial activity as reduced schizont maturation in Plasmodium berghei ANKA infected mice (Mus musculus) at 40 mg/kg/day peroral dose over 4 days; assay type: functional; set-up: scale not given: the % may be the effect or the level left; conditions: route oral

| Structure (SMILES) | CC50 [1] | CC50 [2] | CC50 [3] | Activity (Plasmodium berghei [4]) | Activity (Mus musculus) | Activity (Plasmodium berghei [5]) | Activity (Plasmodium berghei [6]) | Activity (Plasmodium berghei [7]) | Activity (Plasmodium berghei [8]) |
| --- | --- | --- | --- | --- | --- | --- | --- | --- | --- |
| Cc1c2ccncc2c(C)c2c1[nH]c1ccccc12 [ELLIPTECINE] | 1.77 µg/mL (≈ 7.19 µM) | < 1 µg/mL | 1.31 µg/mL (≈ 5.32 µM) | – | – | – | – | – | – |
| CCN(CC)CCCC(C)Nc1ccnc2cc(Cl)ccc12 (stereo not drawn) [CHLOROQUINE] | – | – | – | 100% | Non-toxic | 95.7% | 94% | – | – |
| COc1cc(O[C@@H]2O[C@H](CO)[C@@H](O)[C@H](O)[C@H]2O)c2c(-c3ccc(OC)c(O)c3)cc(=O)oc2c1 | – | – | – | – | Non-toxic | – | – | 24.7% | 35.1% |
| COc1cc(O[C@@H]2O[C@H](CO)[C@@H](O)[C@H](O)[C@H]2O)c2c(-c3ccc(O)c(O)c3)cc(=O)oc2c1 | – | – | – | – | Non-toxic | – | – | 25.9% | 70.8% |
